Values after ≈ are worked out from the molar mass of the structure shown.
Columns and labels:
Test in all cases: In vitro anti-TB activity, agar dilution method
Type in all cases: cell-based
[1] = system: Mycobacterium intercellulari (ATCC35743); conditions: for MIC: Mycobacterium, ATCC35743, agar dilution, 35° C., 48 hours, read-out: MIC (μg/ml)/Mycobacterium strain M. intercellulari
Procedure: (§1) The anti-TB activity of the synthesized compound was tested using the agar dilution method, see T. Aboul-Fadl, F. A. Mohammed, E. A. Hassan, Arch. Pharm. Res. 26 (2003) 778-784 and NCCLS Susceptibility Testing of Mycobacteria, Nocardia, and Other Aerobic Actinomycetes; Tentative Standard NCCLS document M24-T2 [ISBN 1-56238-423-6], second ed., NCCLS, 960 West Valley Road, Suite 1400, Wayne, Pa. 2000, 19087-1898, USA.
(§2) The synthesized compound was solubilized in DMSO at a concentration of 1 mg/ml. Appropriate amount was diluted first with 10% molten agar to give a concentration of 200 μg/ml. Further dilutions for the active compound were done to give 100, 50, 25, 12.5, 6.25 and up to 0.625 μg/ml. The agar and the compound solution were mixed thoroughly and the mixture was poured in Petri-dishes on a level surface to result in an agar depth of 3-4 mm and allowed to harden. The incula were prepared by growing overnight culture in Mueller-Hinton broth. The cultures were diluted 1:100. Test organisms were streaked in a radial pattern and plates were incubated at 35° C. for 48 hours. Control experiments consisted of the tested TB strains, DMSO and the growing media were treated in the same manner. Complete […] of growth was observed prior to declaring the compound to be active. The synthesized compound was evaluated for the antimycobacterial activity in vitro again four Mycobacterium strains: Mycobacterium intercellulari (ATCC35743), Mycobacterium xenopi (ATCC 14470), Mycobacterium cheleneo (ATCC 35751) and Mycobacterium smegmatis (ATCC 35797) by the agar dilution method. Isoniazid (INH) was used as a reference drug and control experiments done using a growth media free from drugs or the tested compound. Results of the in vitro antitubercular activity on the tested compound along with standard drug for comparison are given in table 1.

[2] = system: Mycobacterium xenopi (ATCC 14470); conditions: ATCC14470, 35° C., 48 hours, read-out: MIC (μg/ml)/Mycobacterium strain M. xenopi
Procedure: as §1, §2

[3] = system: Mycobacterium cheleneo (ATCC 35751); conditions: ATCC35751, 35° C., 48 hours, read-out: MIC (μg/ml)/Mycobacterium strain M. cheleneo
Procedure: as §1, §2

[4] = system: Mycobacterium smegmatis (ATCC 35797); conditions: Mycolicibacterium smegmatis, ATCC35797, 35° C., 48 hours, read-out: MIC (μg/ml)/Mycobacterium strain M. smegmatis
Procedure: as §1, §2

Row | SMILES | MIC [1] | MIC [2] | MIC [3] | MIC [4] | potency relative to INH in vitro ([1]; antitubercular activity screening, all four strains, versus first line drug INH)
1 | NNC(=O)c1ccncc1 [INH, Isoniazid, reference compound] | 12.5 µg/mL (≈ 91.1 µM) | 12.5 µg/mL (≈ 91.1 µM) | 12.5 µg/mL (≈ 91.1 µM) | 12.5 µg/mL (≈ 91.1 µM) | 
2 | CCn1cc(C(=O)NN=C2C(=O)N(Cc3ccccc3)c3ccccc32)c(=O)c2ccc(C)nc21 [R = H; R1 = H, N′-(1-benzyl-2-oxoindolin-3-ylidene)-1-ethyl-1,4-dihydro-7-methyl-4-oxo-1,8-naphthyridine-3-carbohydrazid] | 0.625 µg/mL (≈ 1.34 µM) | 0.625 µg/mL (≈ 1.34 µM) | 0.625 µg/mL (≈ 1.34 µM) | 0.625 µg/mL (≈ 1.34 µM) | 20 times
